Measured values taken from patent publication US6737383B1, “Herbicidal oxadiazolidines” (priority 1999, dated 2004).

How the values were obtained:
crabgrass = test: Test B pre/postemergence crabgrass; format: in vivo, Digitaria sanguinalis
How it was run: (§1)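 Herbicidal effect was estimated by eye on a ten-point control scale after plants spent twelve to sixteen days in a greenhouse following soil or foliar treatment. Foliar sprays targeted plants at one to four leaves; all doses were formulated in a non-phytotoxic solvent with surfactant.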

corn = test: Test B pre/postemergence corn; format: in vivo, Zea mays
How it was run: as §1

sugar beet = test: Test B pre/postemergence sugar beet; format: in vivo, Beta vulgaris
How it was run: as §1

pigweed = test: Test B pre/postemergence pigweed; format: in vivo, Amaranthus retroflexus
How it was run: as §1

wild oat = test: Test B pre/postemergence wild oat; format: in vivo, Avena fatua
How it was run: as §1

blackgrass = test: Test B pre/postemergence blackgrass; format: in vivo, Alopecurus myosuroides
How it was run: as §1

wheat = test: Test B pre/postemergence wheat; format: in vivo, Triticum aestivum
How it was run: as §1

rape = test: Test B pre/postemergence rape; format: in vivo, Brassica napus
How it was run: as §1

cocklebur = test: Test B pre/postemergence cocklebur; format: in vivo, Xanthium strumarium
How it was run: as §1

soybean = test: Test B pre/postemergence soybean; format: in vivo, Glycine max
How it was run: as §1

purple nutsedge = test: Test B pre/postemergence purple nutsedge; format: in vivo, Cyperus rotundus
How it was run: as §1

velvetleaf = test: Test B pre/postemergence velvetleaf; format: in vivo, Abutilon theophrasti
How it was run: as §1

morningglory = test: Test B pre/postemergence morningglory; format: in vivo, Ipomoea hederacea
How it was run: as §1

giant foxtail = test: Test B pre/postemergence giant foxtail; format: in vivo, Setaria faberii
How it was run: as §1

surinam grass = test: Test B pre/postemergence surinam grass; format: in vivo, Brachiaria decumbens
How it was run: as §1

bedstraw = test: Test B pre/postemergence bedstraw; format: in vivo, Galium aparine
How it was run: as §1

[1] = Postemergence, Rate 62 g/ha, scale of 0 to 10, 0 is no effect, 10 is complete control
[2] = Postemergence, Rate 125 g/ha, scale 0 to 10, 0 is no effect, 10 is complete control
[3] = Postemergence, Rate 500 g/ha, scale of 0 to 10 where 0 is no effect and 10 is complete control
[4] = Preemergence, Rate 62 g/ha, scale 0 to 10 (0 no effect, 10 complete control)
[5] = Preemergence, Rate 125 g/ha, scale 0 to 10, 0 is no effect, 10 is complete control
[6] = Preemergence, Rate 500 g/ha, scale of 0 to 10 where 0 is no effect and 10 is complete control
[7] = Rate 250 g/ha, Postemergence, scale of 0 to 10 where 0 is no effect and 10 is complete control

CCOCn1c(=O)on(C(=O)N(c2ccccc2)C(C)C)c1=O [Compound 563]
Crabgrass plant response rating (crabgrass; [1]): 9 | Crabgrass plant response rating (crabgrass; [2]): 9 | Plant response rating, Crabgrass (crabgrass; [3]): 9 | Crabgrass plant response rating (crabgrass; [4]): 8 | Crabgrass plant response rating (crabgrass; [5]): 9 | Crabgrass plant response rating (0 to 10 scale) (crabgrass; Preemergence, Rate 250 g/ha): 10 | Crabgrass plant response rating (crabgrass; [6]): 9 | Plant response rating, Crabgrass (crabgrass; [7]): 8 | Corn plant response rating (corn; [1]): 0 | Corn plant response rating (corn; [2]): 0 | Plant response rating, Corn (corn; [3]): 8 | Corn plant response rating (corn; [4]): 0 | Corn plant response rating (corn; [5]): 0 | Corn plant response rating (0 to 10 scale) (corn; Preemergence, Rate 250 g/ha): 4 | Corn plant response rating (corn; [6]): 9 | Plant response rating, Corn (corn; [7]): 4 | Sugarbeets plant response rating (sugar beet; [1]): 0 | Plant response rating, Sugarbeets (sugar beet; [3]): 0 | Sugarbeets plant response rating (sugar beet; [4]): 2 | Sugarbeets plant response rating (sugar beet; [5]): 3 | Sugarbeets plant response rating (0 to 10 scale) (sugar beet; Preemergence, Rate 250 g/ha): 3 | Sugarbeets plant response rating (sugar beet; [6]): 4 | Plant response rating, Sugarbeets (sugar beet; [7]): 0 | Redroot pigweed plant response rating (pigweed; [1]): 0 | Plant response rating, Redroot pigweed (pigweed; [3]): 5 | Redroot pigweed plant response rating (pigweed; [4]): 4 | Redroot pigweed plant response rating (pigweed; [5]): 9 | Redroot pigweed plant response rating (0 to 10 scale) (pigweed; Preemergence, Rate 250 g/ha): 9 | Redroot pigweed plant response rating (pigweed; [6]): 9 | Plant response rating, Redroot pigweed (pigweed; [7]): 5 | Wild oats plant response rating (wild oat; [1]): 0 | Plant response rating, Wild oats (wild oat; [3]): 0 | Wild oats plant response rating (wild oat; [4]): 2 | Wild oats plant response rating (wild oat; [5]): 9 | Wild oats plant response rating (0 to 10 scale) (wild oat; Preemergence, Rate 250 g/ha): 9 | Wild oats plant response rating (wild oat; [6]): 10 | Plant response rating, Wild oats (wild oat; [7]): 0 | Blackgrass plant response rating (blackgrass; [1]): 0 | Blackgrass plant response rating (blackgrass; [2]): 0 | Plant response rating, Blackgrass (blackgrass; [3]): 4 | Blackgrass plant response rating (blackgrass; [4]): 2 | Blackgrass plant response rating (blackgrass; [5]): 8 | Blackgrass plant response rating (0 to 10 scale) (blackgrass; Preemergence, Rate 250 g/ha): 9 | Blackgrass plant response rating (blackgrass; [6]): 9 | Plant response rating, Blackgrass (blackgrass; [7]): 4 | Wheat plant response rating (wheat; [1]): 0 | Plant response rating, Wheat (wheat; [3]): 0 | Wheat plant response rating (wheat; [4]): 3 | Wheat plant response rating (wheat; [5]): 8 | Wheat plant response rating (0 to 10 scale) (wheat; Preemergence, Rate 250 g/ha): 9 | Wheat plant response rating (wheat; [6]): 10 | Plant response rating, Wheat (wheat; [7]): 0 | Rape plant response rating (rape; [1]): 0 | Rape plant response rating (rape; [2]): 0 | Plant response rating, Rape (rape; [3]): 5 | Rape plant response rating (rape; [4]): 0 | Rape plant response rating (rape; [5]): 4 | Rape plant response rating (0 to 10 scale) (rape; Preemergence, Rate 250 g/ha): 9 | Rape plant response rating (rape; [6]): 9 | Plant response rating, Rape (rape; [7]): 5 | Cocklebur plant response rating (cocklebur; [1]): 0 | Cocklebur plant response rating (cocklebur; [2]): 0 | Plant response rating, Cocklebur (cocklebur; [3]): 2 | Cocklebur plant response rating (cocklebur; [4]): 0 | Cocklebur plant response rating (cocklebur; [5]): 0 | Cocklebur plant response rating (0 to 10 scale) (cocklebur; Preemergence, Rate 250 g/ha): 0 | Cocklebur plant response rating (cocklebur; [6]): 2 | Plant response rating, Cocklebur (cocklebur; [7]): 0 | Soybean plant response rating (soybean; [1]): 5 | Plant response rating, Soybean (soybean; [3]): 5 | Soybean plant response rating (soybean; [4]): 0 | Soybean plant response rating (soybean; [5]): 0 | Soybean plant response rating (0 to 10 scale) (soybean; Preemergence, Rate 250 g/ha): 3 | Soybean plant response rating (soybean; [6]): 6 | Plant response rating, Soybean (soybean; [7]): 3 | Nutsedge plant response rating (purple nutsedge; [1]): 0 | Nutsedge plant response rating (purple nutsedge; [2]): 0 | Nutsedge plant response rating (purple nutsedge; [4]): 0 | Nutsedge plant response rating (purple nutsedge; [5]): 0 | Nutsedge plant response rating (0 to 10 scale) (purple nutsedge; Preemergence, Rate 250 g/ha): 0 | Plant response rating, Nutsedge (purple nutsedge; [7]): 0 | Velvetleaf plant response rating (velvetleaf; [1]): 0 | Plant response rating, Velvetleaf (velvetleaf; [3]): 4 | Velvetleaf plant response rating (velvetleaf; [4]): 3 | Velvetleaf plant response rating (velvetleaf; [5]): 3 | Velvetleaf plant response rating (0 to 10 scale) (velvetleaf; Preemergence, Rate 250 g/ha): 6 | Velvetleaf plant response rating (velvetleaf; [6]): 7 | Plant response rating, Velvetleaf (velvetleaf; [7]): 2 | Morningglory plant response rating (morningglory; [1]): 4 | Morningglory plant response rating (morningglory; [2]): 6 | Plant response rating, Morningglory (morningglory; [3]): 10 | Morningglory plant response rating (morningglory; [4]): 0 | Morningglory plant response rating (morningglory; [5]): 0 | Morningglory plant response rating (0 to 10 scale) (morningglory; Preemergence, Rate 250 g/ha): 0 | Morningglory plant response rating (morningglory; [6]): 3 | Plant response rating, Morningglory (morningglory; [7]): 10 | Giant foxtail plant response rating (giant foxtail; [1]): 6 | Giant foxtail plant response rating (giant foxtail; [2]): 8 | Plant response rating, Giant foxtail (giant foxtail; [3]): 9 | Giant foxtail plant response rating (giant foxtail; [4]): 9 | Giant foxtail plant response rating (giant foxtail; [5]): 9 | Giant foxtail plant response rating (0 to 10 scale) (giant foxtail; Preemergence, Rate 250 g/ha): 10 | Giant foxtail plant response rating (giant foxtail; [6]): 10 | Plant response rating, Giant foxtail (giant foxtail; [7]): 8 | B. signalgrass plant response rating (surinam grass; [1]): 0 | B. signalgrass plant response rating (surinam grass; [2]): 4 | Plant response rating, B. signalgrass (surinam grass; [3]): 7 | B. signalgrass plant response rating (surinam grass; [4]): 3 | B. signalgrass plant response rating (surinam grass; [5]): 9 | B. signalgrass plant response rating (0 to 10 scale, 0 is no effect, 10 is complete control) (surinam grass; Preemergence, Rate 250 g/ha): 9 | B. signalgrass plant response rating (surinam grass; [6]): 10 | Plant response rating, B. signalgrass (surinam grass; [7]): 5 | Bedstraw plant response rating (bedstraw; [1]): 0 | Bedstraw plant response rating (bedstraw; [2]): 0 | Plant response rating, Bedstraw (bedstraw; [3]): 0 | Bedstraw plant response rating (bedstraw; [4]): 0 | Bedstraw plant response rating (bedstraw; [5]): 0 | Bedstraw plant response rating (0 to 10 scale) (bedstraw; Preemergence, Rate 250 g/ha): 0 | Bedstraw plant response rating (bedstraw; [6]): 0
